Experiments:
Experiment in all cases: KINOMEscan competition binding
Details in all cases: compound 1.0 µM
SRMS (human) = SRMS (human) (UniProt Q9H3Y6)
CSNK1A1 (human) = CSNK1A1 (human) (UniProt P48729)
SRPK1 (human) = SRPK1 (human) (UniProt Q96SB4)
NEK3 (human) = NEK3 (human) (UniProt P51956)
BRSK1 (human) = BRSK1 (human) (UniProt Q8TDC3)
SYK (human) = SYK (human) (UniProt P43405)
PIM2 (human) = PIM2 (human) (UniProt Q9P1W9)
[1] = tested on: EGFR (human), P00533 [T790M/L858R]
BMPR1B (human) = BMPR1B (human) (UniProt O00238)
LRRK2 (human) = LRRK2 (human) (UniProt Q5S007)
[2] = molecular target: TYK2 JH2 pseudokinase (human) (UniProt P29597)
CDK18 (human) = CDK18 (human) (UniProt Q07002)
EPHB2 (human) = EPHB2 (human) (UniProt P29323)
RIPK1 (human) = RIPK1 (human) (UniProt Q13546)
[3] = tested on: EGFR (human), P00533 [L861Q]
PIP5K1C (human) = PIP5K1C (human) (UniProt O60331)
[4] = tested on: ABL1 (human), P00519 [E255K]
[5] = molecular target: JAK1 JH1 catalytic (human) (UniProt P23458)
TNNI3K (human) = TNNI3K (human) (UniProt Q59H18)
TRPM6 (human) = TRPM6 (human) (UniProt Q9BX84)
STK38L (human) = STK38L (human) (UniProt Q9Y2H1)
SGK3 (human) = SGK3 (human) (UniProt Q96BR1)
MAPKAPK2 (human) = MAPKAPK2 (human) (UniProt P49137)
STK11 (human) = STK11 (human) (UniProt Q15831)
[6] = tested on: PIK3CA (human), P42336 [H1047L]
GRK4 (human) = GRK4 (human) (UniProt P32298)
DSTYK (human) = DSTYK (human) (UniProt Q6XUX3)
[7] = molecular target: JAK3 JH1 catalytic (human) (UniProt P52333)
NTRK1 (human) = NTRK1 (human) (UniProt P04629)
PRKG2 (human) = PRKG2 (human) (UniProt Q13237)
MAP3K7 (human) = MAP3K7 (human) (UniProt O43318)
[8] = tested on: EGFR (human), P00533 [746-750 del]
SIK2 (human) = SIK2 (human) (UniProt Q9H0K1)
KDR (human) = KDR (human) (UniProt P35968)
STK32A (human) = STK32A (human) (UniProt Q8WU08)
DCLK3 (human) = DCLK3 (human) (UniProt Q9C098)
PTK2 (human) = PTK2 (human) (UniProt Q05397)
MAP3K13 (human) = MAP3K13 (human) (UniProt O43283)
PKN2 (human) = PKN2 (human) (UniProt Q16513)
RPS6KA6 KD1 (human) = RPS6KA6 KD1 (human) (UniProt Q9UK32)
ACVR2B (human) = ACVR2B (human) (UniProt Q13705)
MAPK7 (human) = MAPK7 (human) (UniProt Q13164)
MAPK7 (human), sequence (Q13164 whole entry, looked up): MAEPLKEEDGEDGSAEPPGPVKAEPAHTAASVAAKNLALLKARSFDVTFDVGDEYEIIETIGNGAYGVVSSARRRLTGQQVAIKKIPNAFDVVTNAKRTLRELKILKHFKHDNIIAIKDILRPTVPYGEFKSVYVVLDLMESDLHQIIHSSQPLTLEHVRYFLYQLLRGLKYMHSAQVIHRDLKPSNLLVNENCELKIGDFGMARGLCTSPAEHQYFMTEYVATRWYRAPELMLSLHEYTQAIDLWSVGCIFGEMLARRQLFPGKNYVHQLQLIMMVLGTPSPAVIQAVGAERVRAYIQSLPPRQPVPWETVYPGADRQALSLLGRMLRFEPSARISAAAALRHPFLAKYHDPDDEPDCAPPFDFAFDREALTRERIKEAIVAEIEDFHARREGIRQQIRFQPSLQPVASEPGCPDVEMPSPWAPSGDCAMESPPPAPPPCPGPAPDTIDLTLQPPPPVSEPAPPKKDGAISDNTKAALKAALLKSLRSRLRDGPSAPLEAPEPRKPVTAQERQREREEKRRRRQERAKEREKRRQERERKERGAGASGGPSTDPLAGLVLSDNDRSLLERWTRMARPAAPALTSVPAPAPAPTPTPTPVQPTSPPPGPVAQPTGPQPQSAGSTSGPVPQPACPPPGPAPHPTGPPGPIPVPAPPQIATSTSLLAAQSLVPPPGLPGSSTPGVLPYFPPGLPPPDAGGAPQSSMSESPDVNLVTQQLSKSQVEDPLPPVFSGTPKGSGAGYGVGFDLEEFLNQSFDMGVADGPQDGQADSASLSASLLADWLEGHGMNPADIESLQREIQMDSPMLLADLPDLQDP

PTK2 (human), sequence (Q05397 whole entry, looked up): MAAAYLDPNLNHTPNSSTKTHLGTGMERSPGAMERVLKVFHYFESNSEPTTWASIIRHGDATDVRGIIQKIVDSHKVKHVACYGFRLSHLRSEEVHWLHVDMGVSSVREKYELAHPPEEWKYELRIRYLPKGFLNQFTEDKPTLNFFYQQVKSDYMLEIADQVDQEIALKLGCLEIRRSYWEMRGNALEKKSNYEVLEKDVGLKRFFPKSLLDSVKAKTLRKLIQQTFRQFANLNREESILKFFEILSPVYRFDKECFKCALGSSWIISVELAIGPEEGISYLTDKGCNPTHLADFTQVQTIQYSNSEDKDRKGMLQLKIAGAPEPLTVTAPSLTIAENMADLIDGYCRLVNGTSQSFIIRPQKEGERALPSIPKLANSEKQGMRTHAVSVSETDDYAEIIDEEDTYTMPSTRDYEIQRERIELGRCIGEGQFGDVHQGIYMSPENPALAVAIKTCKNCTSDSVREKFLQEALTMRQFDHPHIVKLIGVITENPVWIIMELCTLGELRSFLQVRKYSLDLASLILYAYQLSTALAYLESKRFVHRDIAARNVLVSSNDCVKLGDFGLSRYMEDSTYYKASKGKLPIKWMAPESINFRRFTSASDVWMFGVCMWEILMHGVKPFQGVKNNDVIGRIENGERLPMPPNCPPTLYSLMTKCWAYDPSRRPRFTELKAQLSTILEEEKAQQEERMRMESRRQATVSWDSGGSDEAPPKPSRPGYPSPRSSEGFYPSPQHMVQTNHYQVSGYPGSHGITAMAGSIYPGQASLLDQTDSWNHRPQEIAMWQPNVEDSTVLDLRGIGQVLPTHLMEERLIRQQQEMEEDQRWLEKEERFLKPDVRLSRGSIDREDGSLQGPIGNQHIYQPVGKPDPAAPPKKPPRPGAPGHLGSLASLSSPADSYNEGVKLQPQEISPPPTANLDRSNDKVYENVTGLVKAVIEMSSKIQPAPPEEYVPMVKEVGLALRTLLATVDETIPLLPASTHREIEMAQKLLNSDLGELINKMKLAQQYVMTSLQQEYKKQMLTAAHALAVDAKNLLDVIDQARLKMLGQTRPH
EPHB2 (human), sequence (P29323 whole entry, looked up): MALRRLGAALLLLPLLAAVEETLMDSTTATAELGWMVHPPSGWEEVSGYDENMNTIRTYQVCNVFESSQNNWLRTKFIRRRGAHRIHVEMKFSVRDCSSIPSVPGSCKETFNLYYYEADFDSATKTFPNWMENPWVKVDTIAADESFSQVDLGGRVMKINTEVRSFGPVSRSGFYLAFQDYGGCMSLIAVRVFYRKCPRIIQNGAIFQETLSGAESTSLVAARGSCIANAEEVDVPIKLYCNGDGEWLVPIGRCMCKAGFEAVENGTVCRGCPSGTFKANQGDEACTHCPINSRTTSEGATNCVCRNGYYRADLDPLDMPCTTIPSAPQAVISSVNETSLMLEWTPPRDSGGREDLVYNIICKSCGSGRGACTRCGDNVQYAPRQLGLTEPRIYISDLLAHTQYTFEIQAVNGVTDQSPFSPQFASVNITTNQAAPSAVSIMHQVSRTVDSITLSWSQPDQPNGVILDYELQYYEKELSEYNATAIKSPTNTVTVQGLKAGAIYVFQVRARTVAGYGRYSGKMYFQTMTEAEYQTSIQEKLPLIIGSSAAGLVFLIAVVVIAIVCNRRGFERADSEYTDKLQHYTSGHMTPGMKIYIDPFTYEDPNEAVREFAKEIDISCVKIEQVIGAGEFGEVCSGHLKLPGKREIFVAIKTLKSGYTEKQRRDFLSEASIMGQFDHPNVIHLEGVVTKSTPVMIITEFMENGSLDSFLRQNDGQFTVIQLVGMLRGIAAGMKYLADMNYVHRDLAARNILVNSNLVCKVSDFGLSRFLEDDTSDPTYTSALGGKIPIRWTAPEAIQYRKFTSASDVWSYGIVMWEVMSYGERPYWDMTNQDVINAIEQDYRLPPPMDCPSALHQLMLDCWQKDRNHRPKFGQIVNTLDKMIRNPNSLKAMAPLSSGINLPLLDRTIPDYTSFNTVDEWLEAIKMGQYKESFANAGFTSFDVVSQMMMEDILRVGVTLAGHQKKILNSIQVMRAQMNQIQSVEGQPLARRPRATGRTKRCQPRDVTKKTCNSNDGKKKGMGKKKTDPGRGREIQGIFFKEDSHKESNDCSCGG
DSTYK (human), sequence (Q6XUX3 whole entry, looked up): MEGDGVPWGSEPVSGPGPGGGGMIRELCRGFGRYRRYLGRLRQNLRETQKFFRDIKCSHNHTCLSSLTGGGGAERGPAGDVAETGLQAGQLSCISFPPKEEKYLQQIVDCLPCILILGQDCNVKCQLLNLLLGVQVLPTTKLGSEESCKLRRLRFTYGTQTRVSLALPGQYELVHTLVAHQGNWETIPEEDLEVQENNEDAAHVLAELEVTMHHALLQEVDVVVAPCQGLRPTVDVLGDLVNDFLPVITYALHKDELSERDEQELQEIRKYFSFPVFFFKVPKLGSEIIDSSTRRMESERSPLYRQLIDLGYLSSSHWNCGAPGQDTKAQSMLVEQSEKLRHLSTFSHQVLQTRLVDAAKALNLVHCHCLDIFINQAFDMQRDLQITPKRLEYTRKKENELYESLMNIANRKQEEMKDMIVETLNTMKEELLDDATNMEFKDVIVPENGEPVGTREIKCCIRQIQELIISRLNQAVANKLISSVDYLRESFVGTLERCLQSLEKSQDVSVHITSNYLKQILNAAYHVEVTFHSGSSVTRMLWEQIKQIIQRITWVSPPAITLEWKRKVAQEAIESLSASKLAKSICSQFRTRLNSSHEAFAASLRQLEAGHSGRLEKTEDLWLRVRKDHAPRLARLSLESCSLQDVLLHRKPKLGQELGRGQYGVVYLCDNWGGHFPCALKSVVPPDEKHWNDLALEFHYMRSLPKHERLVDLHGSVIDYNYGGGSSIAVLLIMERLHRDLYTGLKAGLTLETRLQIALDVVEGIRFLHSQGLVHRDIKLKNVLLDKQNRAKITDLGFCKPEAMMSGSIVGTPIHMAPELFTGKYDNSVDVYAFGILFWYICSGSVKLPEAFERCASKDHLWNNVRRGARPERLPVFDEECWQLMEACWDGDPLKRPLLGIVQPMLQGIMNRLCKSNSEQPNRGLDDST
STK11 (human), sequence (Q15831 whole entry, looked up): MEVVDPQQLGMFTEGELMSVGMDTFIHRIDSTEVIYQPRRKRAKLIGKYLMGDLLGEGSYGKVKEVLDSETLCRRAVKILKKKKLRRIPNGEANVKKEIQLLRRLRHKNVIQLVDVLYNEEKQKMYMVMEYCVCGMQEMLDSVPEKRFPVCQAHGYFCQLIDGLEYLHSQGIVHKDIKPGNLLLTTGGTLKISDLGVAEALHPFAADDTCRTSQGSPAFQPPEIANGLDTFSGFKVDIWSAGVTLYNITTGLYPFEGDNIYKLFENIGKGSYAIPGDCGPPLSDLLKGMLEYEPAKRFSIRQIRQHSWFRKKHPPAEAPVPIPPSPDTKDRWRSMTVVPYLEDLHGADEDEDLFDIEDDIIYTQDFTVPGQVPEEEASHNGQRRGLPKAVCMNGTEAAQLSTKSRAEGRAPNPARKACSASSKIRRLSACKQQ
STK38L (human), sequence (Q9Y2H1 whole entry, looked up): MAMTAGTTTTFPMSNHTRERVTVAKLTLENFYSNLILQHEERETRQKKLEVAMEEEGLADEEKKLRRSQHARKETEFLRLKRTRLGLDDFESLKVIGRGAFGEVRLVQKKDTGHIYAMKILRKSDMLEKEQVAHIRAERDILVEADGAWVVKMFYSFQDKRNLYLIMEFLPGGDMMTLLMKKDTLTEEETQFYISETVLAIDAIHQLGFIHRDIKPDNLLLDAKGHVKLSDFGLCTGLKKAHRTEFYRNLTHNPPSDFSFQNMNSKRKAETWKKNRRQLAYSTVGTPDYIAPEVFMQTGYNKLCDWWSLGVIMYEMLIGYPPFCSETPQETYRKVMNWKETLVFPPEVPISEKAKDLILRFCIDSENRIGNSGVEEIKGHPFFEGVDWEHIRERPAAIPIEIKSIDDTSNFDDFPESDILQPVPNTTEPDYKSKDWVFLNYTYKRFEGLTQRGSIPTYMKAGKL
PIM2 (human), sequence (Q9P1W9 whole entry, looked up): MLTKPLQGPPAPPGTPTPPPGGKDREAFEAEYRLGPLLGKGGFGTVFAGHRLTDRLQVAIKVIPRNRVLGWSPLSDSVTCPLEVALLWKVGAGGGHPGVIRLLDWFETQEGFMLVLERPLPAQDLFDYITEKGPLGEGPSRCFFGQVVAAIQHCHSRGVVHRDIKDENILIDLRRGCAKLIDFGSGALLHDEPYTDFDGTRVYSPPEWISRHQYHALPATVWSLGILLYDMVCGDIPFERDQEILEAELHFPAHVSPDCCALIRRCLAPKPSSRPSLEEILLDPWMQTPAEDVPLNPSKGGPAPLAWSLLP

## CN(C)C/C=C/C(=O)Nc1cccc(C(=O)Nc2ccc(Nc3nccc(-c4cccnc4)n3)cc2)c1
SRMS (human)
  kinase still bound, per cent of control: 100%
CSNK1A1 (human)
  kinase still bound, per cent of control: 19%
SRPK1 (human)
  kinase still bound, per cent of control: 50%
NEK3 (human)
  kinase still bound, per cent of control: 6.8%
BRSK1 (human)
  kinase still bound, per cent of control: 85%
SYK (human)
  kinase still bound, per cent of control: 66%
PIM2 (human)
  kinase still bound, per cent of control: 100%
[1]
  kinase still bound, per cent of control: 100%
BMPR1B (human)
  kinase still bound, per cent of control: 43%
LRRK2 (human)
  kinase still bound, per cent of control: 63%
[2]
  kinase still bound, per cent of control: 5.8%
CDK18 (human)
  kinase still bound, per cent of control: 100%
EPHB2 (human)
  kinase still bound, per cent of control: 90%
RIPK1 (human)
  kinase still bound, per cent of control: 18%
[3]
  kinase still bound, per cent of control: 84%
PIP5K1C (human)
  kinase still bound, per cent of control: 22%
[4]
  kinase still bound, per cent of control: 43%
[5]
  kinase still bound, per cent of control: 100%
TNNI3K (human)
  kinase still bound, per cent of control: 77%
TRPM6 (human)
  kinase still bound, per cent of control: 100%
STK38L (human)
  kinase still bound, per cent of control: 99%
SGK3 (human)
  kinase still bound, per cent of control: 100%
MAPKAPK2 (human)
  kinase still bound, per cent of control: 100%
STK11 (human)
  kinase still bound, per cent of control: 67%
[6]
  kinase still bound, per cent of control: 100%
GRK4 (human)
  kinase still bound, per cent of control: 32%
DSTYK (human)
  kinase still bound, per cent of control: 100%
[7]
  kinase still bound, per cent of control: 27%
NTRK1 (human)
  kinase still bound, per cent of control: 76%
PRKG2 (human)
  kinase still bound, per cent of control: 82%
MAP3K7 (human)
  kinase still bound, per cent of control: 34%
[8]
  kinase still bound, per cent of control: 88%
SIK2 (human)
  kinase still bound, per cent of control: 51%
KDR (human)
  kinase still bound, per cent of control: 100%
STK32A (human)
  kinase still bound, per cent of control: 100%
DCLK3 (human)
  kinase still bound, per cent of control: 100%
PTK2 (human)
  kinase still bound, per cent of control: 100%
MAP3K13 (human)
  kinase still bound, per cent of control: 100%
PKN2 (human)
  kinase still bound, per cent of control: 33%
RPS6KA6 KD1 (human)
  kinase still bound, per cent of control: 88%
ACVR2B (human)
  kinase still bound, per cent of control: 56%
MAPK7 (human)
  kinase still bound, per cent of control: 100%

## CN(C)C/C=C/C(=O)Nc1cccc(C(=O)Nc2ccc(Nc3nccc(-c4c(-c5ccccc5)nn5ccccc45)n3)cc2)c1
SRMS (human)
  kinase still bound, per cent of control: 87%
CSNK1A1 (human)
  kinase still bound, per cent of control: 2%
SRPK1 (human)
  kinase still bound, per cent of control: 90%
NEK3 (human)
  kinase still bound, per cent of control: 99%
BRSK1 (human)
  kinase still bound, per cent of control: 86%
SYK (human)
  kinase still bound, per cent of control: 82%
PIM2 (human)
  kinase still bound, per cent of control: 100%
[1]
  kinase still bound, per cent of control: 36%
BMPR1B (human)
  kinase still bound, per cent of control: 47%
LRRK2 (human)
  kinase still bound, per cent of control: 72%
[2]
  kinase still bound, per cent of control: 100%
CDK18 (human)
  kinase still bound, per cent of control: 95%
EPHB2 (human)
  kinase still bound, per cent of control: 67%
RIPK1 (human)
  kinase still bound, per cent of control: 73%
[3]
  kinase still bound, per cent of control: 0.75%
PIP5K1C (human)
  kinase still bound, per cent of control: 87%
[4]
  kinase still bound, per cent of control: 12%
[5]
  kinase still bound, per cent of control: 89%
TNNI3K (human)
  kinase still bound, per cent of control: 100%
TRPM6 (human)
  kinase still bound, per cent of control: 100%
STK38L (human)
  kinase still bound, per cent of control: 100%
SGK3 (human)
  kinase still bound, per cent of control: 91%
MAPKAPK2 (human)
  kinase still bound, per cent of control: 84%
STK11 (human)
  kinase still bound, per cent of control: 93%
[6]
  kinase still bound, per cent of control: 77%
GRK4 (human)
  kinase still bound, per cent of control: 93%
DSTYK (human)
  kinase still bound, per cent of control: 80%
[7]
  kinase still bound, per cent of control: 49%
NTRK1 (human)
  kinase still bound, per cent of control: 30%
PRKG2 (human)
  kinase still bound, per cent of control: 83%
MAP3K7 (human)
  kinase still bound, per cent of control: 47%
[8]
  kinase still bound, per cent of control: 0%
SIK2 (human)
  kinase still bound, per cent of control: 42%
KDR (human)
  kinase still bound, per cent of control: 17%
STK32A (human)
  kinase still bound, per cent of control: 35%
DCLK3 (human)
  kinase still bound, per cent of control: 86%
PTK2 (human)
  kinase still bound, per cent of control: 95%
MAP3K13 (human)
  kinase still bound, per cent of control: 100%
PKN2 (human)
  kinase still bound, per cent of control: 100%
RPS6KA6 KD1 (human)
  kinase still bound, per cent of control: 91%
ACVR2B (human)
  kinase still bound, per cent of control: 9.6%
MAPK7 (human)
  kinase still bound, per cent of control: 100%

## CN(C)C/C=C/C(=O)Nc1cccc(C(=O)Nc2ccc(Nc3nccc(/C(C#N)=C4\Nc5ccccc5S4)n3)cc2)c1
SRMS (human)
  kinase still bound, per cent of control: 100%
CSNK1A1 (human)
  kinase still bound, per cent of control: 75%
SRPK1 (human)
  kinase still bound, per cent of control: 91%
NEK3 (human)
  kinase still bound, per cent of control: 100%
BRSK1 (human)
  kinase still bound, per cent of control: 90%
SYK (human)
  kinase still bound, per cent of control: 85%
PIM2 (human)
  kinase still bound, per cent of control: 51%
[1]
  kinase still bound, per cent of control: 100%
BMPR1B (human)
  kinase still bound, per cent of control: 100%
LRRK2 (human)
  kinase still bound, per cent of control: 57%
[2]
  kinase still bound, per cent of control: 33%
CDK18 (human)
  kinase still bound, per cent of control: 100%
EPHB2 (human)
  kinase still bound, per cent of control: 77%
RIPK1 (human)
  kinase still bound, per cent of control: 85%
[3]
  kinase still bound, per cent of control: 81%
PIP5K1C (human)
  kinase still bound, per cent of control: 100%
[4]
  kinase still bound, per cent of control: 100%
[5]
  kinase still bound, per cent of control: 100%
TNNI3K (human)
  kinase still bound, per cent of control: 100%
TRPM6 (human)
  kinase still bound, per cent of control: 100%
STK38L (human)
  kinase still bound, per cent of control: 100%
SGK3 (human)
  kinase still bound, per cent of control: 97%
MAPKAPK2 (human)
  kinase still bound, per cent of control: 92%
STK11 (human)
  kinase still bound, per cent of control: 90%
[6]
  kinase still bound, per cent of control: 100%
GRK4 (human)
  kinase still bound, per cent of control: 78%
DSTYK (human)
  kinase still bound, per cent of control: 100%
[7]
  kinase still bound, per cent of control: 83%
NTRK1 (human)
  kinase still bound, per cent of control: 100%
PRKG2 (human)
  kinase still bound, per cent of control: 100%
MAP3K7 (human)
  kinase still bound, per cent of control: 58%
[8]
  kinase still bound, per cent of control: 72%
SIK2 (human)
  kinase still bound, per cent of control: 100%
KDR (human)
  kinase still bound, per cent of control: 55%
STK32A (human)
  kinase still bound, per cent of control: 100%
DCLK3 (human)
  kinase still bound, per cent of control: 100%
PTK2 (human)
  kinase still bound, per cent of control: 100%
MAP3K13 (human)
  kinase still bound, per cent of control: 100%
PKN2 (human)
  kinase still bound, per cent of control: 87%
RPS6KA6 KD1 (human)
  kinase still bound, per cent of control: 100%
ACVR2B (human)
  kinase still bound, per cent of control: 100%
MAPK7 (human)
  kinase still bound, per cent of control: 100%

— the kinase profiling compilation of Christmann-Franck et al. (2016)
